# Experimental data: patent US20060004026A1, “Compositions for ameliorating attention-deficient/hyperactivity disorder” (priority 2001, published 2006)
# Legend:
# [1] = tested on: patients diagnosed attention-deficit hyperactivity disorder; assay: administration to patients diagnosed attention-deficit hyperactivity disorder; assay type: in vivo, human
# Description: The “attention-deficit hyperactivity disorder,” as referred to herein, to which the composition of the present invention is applied is a symptom judged on the basis of a diagnostic method for ADHD, as defined in DSM-IV Seishin Shogai no Shindan•Tokei Manyuaru (Diagnosis and Statistic Manuals for DSM-IV Mental Disorders) (published by Igakushoin, 1996). Concretely, an individual with ADHD meets the following criteria.
# In addition, the diagnosis is made under the conditions that some of these symptoms have caused problems before reaching 7-years old, and that any problems take place at present in two or more different locations (examples: school and home). Also, the judgment is made only in the case where serious disorders are recognized in social life, schoolwork and vocational work, and any of the symptoms are not caused by other diseases.
# The exhibition of the action for mitigating or alleviating attention-deficit hyperactivity disorder by theanine can be evaluated by a clinical test in which theanine is administered to a patient who meets the above-mentioned [Criteria for Diagnosis], and any ameliorative effects on attention-deficit hyperactivity disorder are observed, as compared to that before the administration of theanine.
# Five patients who were diagnosed attention-deficit hyperactivity disorder by doctors were administered with a composition containing L-theanine. The composition was prepared so that L-theanine was mixed with crystalline cellulose, sucrose fatty acid ester, reducing maltose, silicon dioxide, lactose and aspartame so as to have the content of L-theanine of 20% by weight, and tableting the mixture to prepare a tablet.
# [2] = tested on: mouse; assay: acute toxic test using a mouse; assay type: in vivo; settings: oral administration at 5 g/kg
# Description: The theanine used in the present invention has high safety. […] Also, especially L-theanine is known as a main component of umami (tastiness) of the green tea, and is also used as a food additive giving umami, without the limitation of its added amount under the regulation for food hygiene. Moreover, contrary to the conventional drugs, since there is no side effect by theanine at all, the amelioration of attention-deficit hyperactivity disorder can be safely and effectively achieved according to the composition of the present invention.
compound,measurement,setting,value
CCNC(=O)CC[C@H](N)C(=O)O [L-theanine],effect judged by the doctor in charge,"[1]; Patient 1, 50 mg/day over 8 weeks",effective
same,ADHD symptoms after the termination of the administration,"[1]; Patient 1, 50 mg/day over 8 weeks, tablet with 20% by weight L-theanine",substantially disappeared
same,ADHD symptoms after the termination of the administration,"[1]; Patient 2 (person one), 200 mg/day over 10 weeks",substantially disappeared
same,effect judged by the doctor in charge,"[1]; Patient 2, 200 mg/day over 10 weeks",effective
same,ADHD symptoms,"[1]; Patient 3, 100 mg/day together with Ritalin over 1 week",substantially disappeared
same,behaviour at school on the day of administration,"[1]; Patient 4, 200 mg/day only once before school",could attend the classes without any problems
same,state of symptoms in the following day (maintenance by a single dosage),"[1]; Patient 4, 200 mg/day only once, following day",returned to the original state of symptoms
same,ADHD symptoms after the termination of the administration,"[1]; Patient 5, 60 mg/day over 1 week",remarkably ameliorated
"COC(=O)C(c1ccccc1)C1CCCCN1 (stereo not drawn) [Ritalin, methylphenidate, reference compound]",ADHD symptoms during the administration,"[1]; Patient 2, earlier treatment with Ritalin",stabilized
same,side effects,"[1]; Patient 2, earlier treatment with Ritalin, administration was stopped",serious
"CCNC(=O)CC[C@H](N)C(=O)O [theanine, γ-glutamylethylamide]","abnormalities in the general states, weight and the like",[2],no abnormalities
same,cases of death,[2],no cases of death
